Assay results published in patent publication US7572777B2, “Florfenicol prodrug having improved water solubility” (Schering-Plough Animal Health Corp., priority 2003, dated 2009).
One block for each compound: values may come before it.

Experiments:
[1] = Conversion of prodrug to florfenicol in rat serum; conditions: 37° C., after 4 hours (FIG. 1)
[2] = Conversion of prodrug to florfenicol in bovine serum; conditions: 37° C., after 4 hours (FIG. 1)
[3] = Stability of the phosphate prodrug in aqueous solutions; format: physicochemical; conditions: for % Compound B (cyclic phosphate formed) / % Compound C (free florfenicol formed) / % Compound A: 40° C., 30 days under nitrogen; for % Compound A: initial purity 98.3%
Excerpt: Although relatively stable in aqueous solutions, over prolonged periods of time the phosphate ester of florfenicol (Formula I) undergoes slow degradation resulting in the release of free florfenicol as well as the formation of cyclic phosphate diester. The formation of the cyclic diester occurs through the phosphate anion displacement of fluorine and requires participation of the phosphate di-anion, which is much more nucleophilic than the corresponding mono-anion. Therefore, the rate of formation of the cyclic diester is largely dependent on the pH of the solution or more generally, on the degree of the phosphate ionization. […]. However, even such small changes of pH result in noticeable differences of the amount of the cyclic phosphate diester formed.

physchem = format: physicochemical
Procedure: Successive aliquots of solid phosphate ester prodrug (sodium salt) were added to water with agitation. Addition was continued until mixing became difficult due to high viscosity, at which point all of the prodrug remained in solution.

[4] = Conversion of florfenicol phosphate to florfenicol in swine (plasma florfenicol after iv dosing); format: in vivo; conditions: pigs, approximately 6.7 mg/kg (FIG. 4)
Procedure: FIG. 4 is a graphic presentation of florfenicol concentrations in the plasma of pigs following intravenous administration of florfenicol phosphate ester. The plot depicts florfenicol concentrations detected in the plasma of three pigs following intravenous administration of the florfenicol phosphate ester prodrug at a dose of approximately 6.7 mg/kg of body weight, which equates to a florfenicol equivalent dose of 5 mg/kg. Each symbol denotes the data from a different pig.
[…]. Plasma samples were collected after drug administration and analyzed for concentrations of florfenicol. […].

[5] = Conversion of florfenicol phosphate to florfenicol in cattle (plasma florfenicol after iv dosing); format: in vivo; conditions: calves, approximately 10 mg/kg, HPLC-MS/MS (FIG. 2)
Excerpt: […]. Each symbol denotes the data from a different calf.

[6] = Conversion of florfenicol phosphate to florfenicol in dogs (plasma florfenicol after iv dosing); format: in vivo; conditions: approximately 11 mg/kg, HPLC-MS/MS (FIG. 3)
Procedure: . The plot depicts florfenicol concentrations in the plasma of three dogs following intravenous administration of the florfenicol phosphate ester prodrug at a dose of approximately 11.1 mg/kg of body weight, which equates to a florfenicol equivalent dose of 8.3 mg/kg. Each symbol denotes the data from a different dog.

[7] = pH 4.48 adjusted with ethanolamine, 300 mg/mL active florfenicol
[8] = pH 4.54, aqueous solution 300 mg/mL active florfenicol
[9] = pH 4.95, aqueous solution 300 mg/mL active florfenicol
[10] = pH 5.03 adjusted with ethanolamine, 300 mg/mL active florfenicol
[11] = pH 5.51 adjusted with ethanolamine, 300 mg/mL active florfenicol
[12] = pH 5.53, aqueous solution 300 mg/mL active florfenicol
[13] = listed as Florfenicol phosphate

Compound: CS(=O)(=O)c1ccc([C@@H](OC(=O)CCCC(=O)O)[C@@H](CF)NC(=O)C(Cl)Cl)cc1 [glutarate ester of florfenicol]
- conversion (hydrolysis) to florfenicol [1]: about 3%
- conversion (hydrolysis) to florfenicol [2]: approximately 6%

- conversion of the prodrug into cyclic diester ([3]; heating a solution of the bis sodium salt): almost quantitative conversion
- aqueous solubility (original concentration by HPLC) (physchem): greater than 700 mg/mL
Compound: CS(=O)(=O)c1ccc([C@@H](OP(=O)([O-])[O-])[C@@H](CF)NC(=O)C(Cl)Cl)cc1.[Na+].[Na+] [sodium salt of florfenicol phosphate, [1R, 2S-1-(4-Methanesulfonylphenyl)-2-(2,2-dichloroacetylamino)-3-fluoropropyl]phosphate disodium salt]

- stability in aqueous solution versus pH ([3]; below pH 4 or at neutral or higher pH ranges): less stable
- stability of aqueous solutions of the prodrug ([3]; close to one equivalent of sodium hydroxide or ethanolamine added to concentrated aqueous solution, approximately pH 4.5 to pH 5.5): Satisfactory stability
- effect of ionic strength on aqueous stability ([3]; increased ionic strength): reduces the aqueous stability
- % Compound B (cyclic phosphate formed) [3, 7]: 0.18%
- % Compound C (free florfenicol formed) [3, 7]: 0.92%
- % Compound A [3, 7]: 93.43%
- % Compound B (cyclic phosphate formed) [3, 8]: 0.17%
- % Compound C (free florfenicol formed) [3, 8]: 1.02%
- % Compound A [3, 8]: 94.40%
- % Compound B (cyclic phosphate formed) [3, 9]: 0.37%
- % Compound C (free florfenicol formed) [3, 9]: 1.01%
- % Compound A [3, 9]: 93.38%
- % Compound B (cyclic phosphate formed) [3, 10]: 0.58%
- % Compound C (free florfenicol formed) [3, 10]: 0.86%
- % Compound A [3, 10]: 95.83%
- % Compound B (cyclic phosphate formed) [3, 11]: 1.25%
- % Compound C (free florfenicol formed) [3, 11]: 0.70%
- % Compound A [3, 11]: 93.83%
- % Compound B (cyclic phosphate formed) [3, 12]: 1.41%
- % Compound C (free florfenicol formed) [3, 12]: 0.93%
- % Compound A [3, 12]: 93.06%
- plasma florfenicol concentrations following treatment [4, 13]: increased rapidly
- plasma florfenicol concentrations following treatment [5, 13]: increased rapidly
- plasma florfenicol concentrations following treatment [6, 13]: increased rapidly
- solubility (physchem; water, thermodynamic from solid): > 600 mg/mL
Compound: CS(=O)(=O)c1ccc([C@@H](OP(=O)(O)O)[C@@H](CF)NC(=O)C(Cl)Cl)cc1 [florfenicol phosphate ester]
- plasma florfenicol concentrations following treatment [4]: substantial concentrations of florfenicol were detected
- plasma florfenicol concentrations following treatment [5]: substantial concentrations of florfenicol were detected
- plasma florfenicol concentrations following treatment [6]: substantial concentrations of florfenicol were detected
